# Measurements taken from US20110288017A1, “APO-LIPOPROTEIN PROPEPTIDE” (priority 2010, published 2011).
# Assays:
# [1] = biological target: T1, oxysterol receptor LXRβ (Rattus norvegicus, UniProt Q62755); assay: Peptide bead pull-down from liver lysate, SDS-PAGE, MALDI-TOF peptide mass fingerprint; assay type: binding; conditions: lean Zucker rat liver lysate; peptide attached to benzyloxybenzylbromide resin at N-terminus; Mascot search; FIG. 6
# T1 construct: Liver tissue from a lean Zucker rat was lysed; from tissue; host or cells: liver of lean Zucker rat (lysate, CellLytic-MT buffer)
# T1 sequence (Q62755 1-446): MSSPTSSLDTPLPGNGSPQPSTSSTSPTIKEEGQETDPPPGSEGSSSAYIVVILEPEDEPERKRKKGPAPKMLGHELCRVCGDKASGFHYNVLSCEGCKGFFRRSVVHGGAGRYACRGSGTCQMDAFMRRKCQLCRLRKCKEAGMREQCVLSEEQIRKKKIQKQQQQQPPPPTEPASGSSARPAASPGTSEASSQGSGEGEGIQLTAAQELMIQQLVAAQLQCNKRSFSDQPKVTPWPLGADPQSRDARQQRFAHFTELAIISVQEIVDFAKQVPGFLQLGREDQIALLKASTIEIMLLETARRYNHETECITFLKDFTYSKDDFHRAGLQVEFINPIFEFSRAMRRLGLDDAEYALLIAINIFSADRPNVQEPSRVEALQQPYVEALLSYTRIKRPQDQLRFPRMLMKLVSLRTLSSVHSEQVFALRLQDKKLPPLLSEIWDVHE
# From the text: The Apo AI propeptide was attached to benzyloxybenzylbromide resin at its N-terminus. Rat liver tissue was lysed using CellLytic-MT lysis buffer using the procedure outlined above. This buffer may be purchased from Sigma-Aldrich Corp. (“Sigma”) (St. Louis, Mo.). […] The protein lysate was removed and added to the peptide modified beads. The solution was shaken for one hour; the supernatant was then removed leaving only the resin beads. The resin beads were washed three times with PBS, and then 30 μl of gel loading solution was added to the resin beads. The solution was heated at 100° C. for five minutes and then loaded onto a polyacrylamide gel (4-20% polyacrylamide) and separated by SDS-PAGE.
# Protein bands of interest were cut from the gel and digested with trypsin overnight following the procedure used at University of California, San Francisco (http://donatello.ucsf.edu/ingel.html). The peptide fragments were analyzed on a Bruker MALDI-TOF mass spectrometer which provided the peptide fragment molecular weight maps of the proteins for protein identification.
# Another set of experiments were designed to determine the identity of any proteins capable of binding to the Apo AI propeptide. The Apo AI propeptide, WEFWQQ, was attached to benzyloxybenzylbromide resin beads at its N-terminus. […]
# [2] = Modified Western blot: native PAGE gel of liver lysate incubated with fluorescent propeptide; assay type: binding; conditions: young mouse (3 months) liver lysate, FIG. 5 Arrow 1
# From the text: (§1) Rat liver tissue from an old (23 months) rat and mouse liver tissue from a young mouse (3 months) was obtained from Dr. Eric R. Blough (Biology department, Marshall University, Huntington, W. Va.). 0.104 g of liver tissue from the young mouse and 0.20 g of tissue from the old rat were placed in separate microcentrifuge tubes and washed thoroughly with phosphate buffered saline (“PBS”).
# (§2) Rat liver tissue was lysed using CellLytic-MT lysis buffer (Sigma) following the procedure provided from Sigma. Along with the lysis buffer, a protease inhibitor cocktail containing pepstatin, aprotinin, and leupeptin was added. The samples were then centrifuged for 15 minutes at 14,000 rpm. Supernatant containing the cellular proteins was pulled from the samples and centrifuged for another 10 minutes.
# (§3) Proteins from the lysate were separated by Native PAGE on a 12% polyacrylamide gel. The gel was run using Tris/Glycine running buffer for one hour at 200 V.
# (§4) After protein separation by PAGE was complete, a picture of the gel was taken using an ultraviolet (“UV”) lamp to excite any fluorescent molecules. The UV exposure time was 20 s. The gel was then incubated with the fluorescent labeled Apo AI propeptide in Tris buffered saline with 5% Tween (“TBST”) overnight on a rocking platform. Another picture of the gel was taken using the same UV exposure time as the initial picture. […]
# [3] = test system: human epithelial cells; assay: Confocal microscopy of epithelial cells treated with fluorescently labeled propeptide; assay type: cell-based
# From the text: (§5) A peptide with the amino acid sequence WEFWQQ (corresponding to the rat sequence of the Apo AI propeptide) containing a fluorescein group attached to the N-terminus was custom synthesized by Cambridge biochemical reagents. Synthetic version of the peptide was made using standard Merrifield peptide synthesis techniques (http://en.wikipedia.org/wiki/Peptide_synthesis). Other standard techniques that would apply here would be the use of bacteria to synthesize large quantities of the peptide (http://en.wikipedia.org/wiki/Recombinant_DNA).
# (§6) Liver tissue was obtained from lean Zucker rats and placed in liver digest media. The liver digest media was then drained into a conical vial and the liver was placed in another sterile beaker of hepatozyme wash media. Clean gauze was placed at the opening to the conical vials and the liver was washed with the hepatozyme wash media yet again. This process filtered the liver cells into the conical vials. The cells were centrifuged for five minutes at 6000 rpm. The cells were washed thoroughly with hepatozyme wash media and then resuspended in 5% Fetal Bovine Serum, 2 mM glutamine hepatozyme wash medium and pipetted into collagen wells. The collagen well plates were incubated at 37° Celsius and 5% CO2. After 19 hours, the media was replaced with clean, fresh Hepatozyme-SFM (3 mL). The media was further supplemented with L-glutamine (2 mM) after 23 hours. […]
# [4] = test system: Zucker rat liver cells; assay: Confocal microscopy of liver cells treated with fluorescently labeled propeptide; assay type: cell-based
# From the text: as §5, §6
# [5] = Modified Western blot: native PAGE gel of liver lysate incubated with fluorescent propeptide; assay type: binding, rat; conditions: FIG. 4
# From the text: as §1, §2, §3, §4
substance,measurement,setting,value
WEFWQQ (PROPEP (1)..(6); listed as Rattus norvegicus),identity of the protein bound to the peptide beads (band at about 45 kDa),[1],identified the protein as the oxysterol receptor LXRβ
same,fluorescent band after incubation with the peptide,[2],same band as was seen in FIG. 4
same,time to entry into cells after peptide application,[3],within seconds
same,entry of the propeptide into cells and nucleus (confocal image),"[4]; Zucker rat liver cells, peptide labeled at N-terminus with fluorescein, FIG. 1",clearly entering the cells and entering the nucleus of the cells
same,time to entry into cells after peptide application,"[4]; liver cells, fluorescently labeled peptide",within seconds
same,binding to a protein on the gel (new fluorescent band after incubation),"[5]; old rat (23 months) liver lysate, overnight incubation",binding to a protein on the gel
same,fluorescence of higher molecular weight band (possibly DNA) after peptide incubation,[5]; old rat liver lysate,increase in the fluorescence intensity of a higher molecular weight band
